Source: patent publication US12643871B2, “Aryl formamide compound containing chiral sulfur oxide or salt thereof, preparation method, herbicidal composition and use thereof” (Qingdao Kingagroot Chemical Compound Co., Ltd., priority 2019, dated 2026)

What was measured:
Assay type in all cases: in vivo
[1] = tested on: Abutilon theophrasti; assay: Weeding effect in post-emergence stage; conditions: 250 g/ha; 2 leaf stage; 15 days after application; fresh weight control rate
How it was run: (§1)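 Greenhouse pot-grown weeds were sprayed at the 2-leaf stage, 2 weeks after sowing, with compound in acetone/Tween 80 plus 1.5 L/ha methyl oleate EC, at 500, 250, 125, 60, 30 or 15 g/ha. Fresh-weight growth control was scored 15 days later on a 0–5 scale, mean of three repeats.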

[2] = tested on: Amaranthus retroflexus; assay: Weeding effect in post-emergence stage; conditions: 250 g/ha; 2 leaf stage; 15 days after application; fresh weight control rate
How it was run: as §1

[3] = tested on: Digitaria sanguinalis; assay: Weeding effect in post-emergence stage; conditions: 250 g/ha; 2 leaf stage; 15 days after application; fresh weight control rate
How it was run: as §1

[4] = tested on: Echinochloa crusgali; assay: Weeding effect in post-emergence stage; conditions: 250 g/ha; 2 leaf stage; 15 days after application; fresh weight control rate
How it was run: as §1

[5] = tested on: Setaria viridis; assay: Weeding effect in post-emergence stage; conditions: 250 g/ha; 2 leaf stage; 15 days after application; fresh weight control rate
How it was run: as §1

[6] = tested on: key weeds such as Digitaria sanguinalis, Leptochloa chinensis; assay: Comparison experiment (post-emergence, Tables 4-7), herbicidal activity on weeds not listed separately
Excerpt: The above growth control rates are fresh weight control rates.
Experiment on weeding effect in post-emergence stage: monocotyledonous and dicotyledonous weed seeds (Descurainia sophia, Capsella bursa-pastoris, Galium aparine, Stellaria media, Lithospermum arvense, Rorippa indica, Alopecurus aequalis, Beckmannia syzigachne, Sclerochloa dura, Phleum paniculatum, Bromus japonicus, Aegilops tauschii, Phalaris arundinacea, Amaranthus retroflexus, Chenopodiaceae, Commelina communis, Sonchus arvensis, convolvulus arvensis, Cirsium setosum, Solanum nigrum, Acalypha australis, Digitaria sanguinalis, Echinochloa crusgalli, Setaria viridis, Setaria glauca, Leptochloa chinensis, Monochoria vaginalis, Sagittaria trifolia, Scirpus juncoides, Cyperus rotundus, Cyperus iria, Cyperus difformis, Fimbristylis, Portulaca oleracea, Xanthium sibiricum, Pharbitis nil) and major crop seeds (wheat, corn, rice, soybean, cotton, oilseed rape, millet, sorghum, potato, sesame, ricinus) were placed in plastic pots filled with soil, then covered with 0.5-2 cm of soil, allowed to grow in a good greenhouse environment. After 2 weeks of sowing, the test plants were treated in the 2 leaf stage. The tested compounds of the present invention were respectively dissolved in acetone, then added with Tween 80 and 1.5 liter/ha of emulsifiable concentrate of methyl oleate as synergist, diluted with a certain amount of water to obtain a solution with a certain concentration, and sprayed with a spray tower onto the plants. After the application, the plants were cultured for 15 days in the greenhouse, and then the experimental results of the weeding were counted. The doses of the used compounds were 500, 250, 125, 60, 30, 15 g/ha, and the averages were obtained by repeating for three times.
If there is no clear marker, the post-seedling test conditions are the same as above, and the experimental results are shown in Tables 4-7.

[7] = doses of 125, 60, 30, 15 g/ha, X replaced by other five membered rings

CC[S@@+]([O-])c1c(C(F)(F)F)ccc(C(=O)Nc2nnc(C)o2)c1OC [Compound 306]
weeding effect in post-emergence stage, activity level (growth control rate), Abutilon theophrasti [1]: 5 (Level 5: growth control rate is above 85%) | weeding effect in post-emergence stage, activity level (growth control rate), Amaranthus retroflexus [2]: 5 (Level 5: growth control rate is above 85%) | weeding effect in post-emergence stage, activity level (growth control rate), Digitaria sanguinalis [3]: 5 (Level 5: growth control rate is above 85%) | weeding effect in post-emergence stage, activity level (growth control rate), Echinochloa crusgali [4]: 5 (Level 5: growth control rate is above 85%) | weeding effect in post-emergence stage, activity level (growth control rate), Setaria viridis [5]: 5 (Level 5: growth control rate is above 85%) | herbicidal activity and/or crop safety compared with the corresponding racemate or S configuration ([6]; no dose stated): better herbicidal activity and/or crop safety

CCCC[S@@+]([O-])c1c(C(F)(F)F)ccc(C(=O)Nc2nnc(C)o2)c1OC [Compound 308]
weeding effect in post-emergence stage, activity level (growth control rate), Abutilon theophrasti [1]: 5 (Level 5: growth control rate is above 85%) | weeding effect in post-emergence stage, activity level (growth control rate), Amaranthus retroflexus [2]: 5 (Level 5: growth control rate is above 85%) | weeding effect in post-emergence stage, activity level (growth control rate), Digitaria sanguinalis [3]: 5 (Level 5: growth control rate is above 85%) | weeding effect in post-emergence stage, activity level (growth control rate), Echinochloa crusgali [4]: 5 (Level 5: growth control rate is above 85%) | weeding effect in post-emergence stage, activity level (growth control rate), Setaria viridis [5]: 5 (Level 5: growth control rate is above 85%) | herbicidal activity and/or crop safety compared with the corresponding racemate or S configuration ([6]; no dose stated): better herbicidal activity and/or crop safety

COc1c(C(=O)Nc2nnc(C)o2)ccc(C(F)(F)F)c1[S@+]([O-])CC1CC1 [Compound 310]
weeding effect in post-emergence stage, activity level (growth control rate), Abutilon theophrasti [1]: 5 (Level 5: growth control rate is above 85%) | weeding effect in post-emergence stage, activity level (growth control rate), Amaranthus retroflexus [2]: 5 (Level 5: growth control rate is above 85%) | weeding effect in post-emergence stage, activity level (growth control rate), Digitaria sanguinalis [3]: 5 (Level 5: growth control rate is above 85%) | weeding effect in post-emergence stage, activity level (growth control rate), Echinochloa crusgali [4]: 5 (Level 5: growth control rate is above 85%) | weeding effect in post-emergence stage, activity level (growth control rate), Setaria viridis [5]: 5 (Level 5: growth control rate is above 85%) | herbicidal activity and/or crop safety compared with the corresponding racemate or S configuration ([6]; no dose stated): better herbicidal activity and/or crop safety

C=CC[S@@+]([O-])c1c(C(F)(F)F)ccc(C(=O)Nc2nnc(C)o2)c1OC [Compound 311]
weeding effect in post-emergence stage, activity level (growth control rate), Abutilon theophrasti [1]: 5 (Level 5: growth control rate is above 85%) | weeding effect in post-emergence stage, activity level (growth control rate), Amaranthus retroflexus [2]: 5 (Level 5: growth control rate is above 85%) | weeding effect in post-emergence stage, activity level (growth control rate), Digitaria sanguinalis [3]: 5 (Level 5: growth control rate is above 85%) | weeding effect in post-emergence stage, activity level (growth control rate), Echinochloa crusgali [4]: 5 (Level 5: growth control rate is above 85%) | weeding effect in post-emergence stage, activity level (growth control rate), Setaria viridis [5]: 5 (Level 5: growth control rate is above 85%) | herbicidal activity and/or crop safety compared with the corresponding racemate or S configuration ([6]; no dose stated): better herbicidal activity and/or crop safety

COc1c(C(=O)Nc2nnc(C)o2)ccc(C(F)(F)F)c1[S@+]([O-])CC(C)F (stereo partly drawn) [Compound 321]
weeding effect in post-emergence stage, activity level (growth control rate), Abutilon theophrasti [1]: 5 (Level 5: growth control rate is above 85%) | weeding effect in post-emergence stage, activity level (growth control rate), Amaranthus retroflexus [2]: 5 (Level 5: growth control rate is above 85%) | weeding effect in post-emergence stage, activity level (growth control rate), Digitaria sanguinalis [3]: 5 (Level 5: growth control rate is above 85%) | weeding effect in post-emergence stage, activity level (growth control rate), Echinochloa crusgali [4]: 5 (Level 5: growth control rate is above 85%) | weeding effect in post-emergence stage, activity level (growth control rate), Setaria viridis [5]: 5 (Level 5: growth control rate is above 85%) | herbicidal activity and/or crop safety compared with the corresponding racemate or S configuration ([6]; no dose stated): better herbicidal activity and/or crop safety

COc1c(C(=O)Nc2nnc(C)o2)ccc(C(F)(F)F)c1[S@+]([O-])CCON=C(C)C [Compound 348]
weeding effect in post-emergence stage, activity level (growth control rate), Abutilon theophrasti [1]: 5 (Level 5: growth control rate is above 85%) | weeding effect in post-emergence stage, activity level (growth control rate), Amaranthus retroflexus [2]: 5 (Level 5: growth control rate is above 85%) | weeding effect in post-emergence stage, activity level (growth control rate), Digitaria sanguinalis [3]: 5 (Level 5: growth control rate is above 85%) | weeding effect in post-emergence stage, activity level (growth control rate), Echinochloa crusgali [4]: 5 (Level 5: growth control rate is above 85%) | weeding effect in post-emergence stage, activity level (growth control rate), Setaria viridis [5]: 5 (Level 5: growth control rate is above 85%) | herbicidal activity and/or crop safety compared with the corresponding racemate or S configuration ([6]; no dose stated): better herbicidal activity and/or crop safety

COC(=O)C[S@@+]([O-])c1c(C(F)(F)F)ccc(C(=O)Nc2nnc(C)o2)c1OC [Compound 353]
weeding effect in post-emergence stage, activity level (growth control rate), Amaranthus retroflexus [2]: 5 (Level 5: growth control rate is above 85%) | weeding effect in post-emergence stage, activity level (growth control rate), Echinochloa crusgali [4]: 5 (Level 5: growth control rate is above 85%) | herbicidal activity and/or crop safety compared with the corresponding racemate or S configuration ([6]; no dose stated): better herbicidal activity and/or crop safety

CCC[S@@+]([O-])c1c(C(F)(F)F)ccc(C(=O)Nc2nnnn2CC)c1F [Compound 382]
weeding effect in post-emergence stage, activity level (growth control rate), Amaranthus retroflexus [2]: 5 (Level 5: growth control rate is above 85%) | weeding effect in post-emergence stage, activity level (growth control rate), Echinochloa crusgali [4]: 5 (Level 5: growth control rate is above 85%) | herbicidal activity and/or crop safety compared with the corresponding racemate or S configuration [6, 7]: better herbicidal activity and/or crop safety

CSc1c(C(=O)Nc2nnc(C)o2)ccc(C(F)(F)F)c1[S@+]([O-])C(C)C [Compound 549]
weeding effect in post-emergence stage, activity level (growth control rate), Abutilon theophrasti [1]: 5 (Level 5: growth control rate is above 85%) | weeding effect in post-emergence stage, activity level (growth control rate), Amaranthus retroflexus [2]: 5 (Level 5: growth control rate is above 85%) | weeding effect in post-emergence stage, activity level (growth control rate), Digitaria sanguinalis [3]: 5 (Level 5: growth control rate is above 85%) | weeding effect in post-emergence stage, activity level (growth control rate), Echinochloa crusgali [4]: 5 (Level 5: growth control rate is above 85%) | herbicidal activity and/or crop safety compared with the corresponding racemate or S configuration ([6]; dose of 120, 48, 30, 24 g/ha): better herbicidal activity and/or crop safety

O=C(Nc1nnco1)c1ccc(C(F)(F)F)c([S@+]([O-])CCC(F)(F)F)c1F [Compound 581]
weeding effect in post-emergence stage, activity level (growth control rate), Abutilon theophrasti [1]: 5 (Level 5: growth control rate is above 85%) | weeding effect in post-emergence stage, activity level (growth control rate), Amaranthus retroflexus [2]: 5 (Level 5: growth control rate is above 85%) | weeding effect in post-emergence stage, activity level (growth control rate), Digitaria sanguinalis [3]: 5 (Level 5: growth control rate is above 85%) | weeding effect in post-emergence stage, activity level (growth control rate), Echinochloa crusgali [4]: 5 (Level 5: growth control rate is above 85%) | weeding effect in post-emergence stage, activity level (growth control rate), Setaria viridis [5]: 5 (Level 5: growth control rate is above 85%)

COCC[S@@+]([O-])c1c(C(F)(F)F)ccc(C(=O)Nc2nnco2)c1F [Compound 582]
weeding effect in post-emergence stage, activity level (growth control rate), Abutilon theophrasti [1]: 5 (Level 5: growth control rate is above 85%) | weeding effect in post-emergence stage, activity level (growth control rate), Amaranthus retroflexus [2]: 5 (Level 5: growth control rate is above 85%) | weeding effect in post-emergence stage, activity level (growth control rate), Digitaria sanguinalis [3]: 5 (Level 5: growth control rate is above 85%) | weeding effect in post-emergence stage, activity level (growth control rate), Echinochloa crusgali [4]: 5 (Level 5: growth control rate is above 85%) | weeding effect in post-emergence stage, activity level (growth control rate), Setaria viridis [5]: 5 (Level 5: growth control rate is above 85%)

CCC[S@@+]([O-])c1c(C(F)F)ccc(C(=O)Nc2nnnn2C)c1Cl [Compound 618]
weeding effect in post-emergence stage, activity level (growth control rate), Amaranthus retroflexus [2]: 5 (Level 5: growth control rate is above 85%) | weeding effect in post-emergence stage, activity level (growth control rate), Digitaria sanguinalis [3]: 5 (Level 5: growth control rate is above 85%) | weeding effect in post-emergence stage, activity level (growth control rate), Echinochloa crusgali [4]: 5 (Level 5: growth control rate is above 85%) | herbicidal activity and/or crop safety compared with the corresponding racemate or S configuration [6, 7]: better herbicidal activity and/or crop safety

CCC[S@@+]([O-])c1c(C(F)F)ccc(C(=O)Nc2nnnn2C)c1OC [Compound 866]
weeding effect in post-emergence stage, activity level (growth control rate), Abutilon theophrasti [1]: 5 (Level 5: growth control rate is above 85%) | weeding effect in post-emergence stage, activity level (growth control rate), Amaranthus retroflexus [2]: 5 (Level 5: growth control rate is above 85%) | weeding effect in post-emergence stage, activity level (growth control rate), Digitaria sanguinalis [3]: 5 (Level 5: growth control rate is above 85%) | weeding effect in post-emergence stage, activity level (growth control rate), Echinochloa crusgali [4]: 5 (Level 5: growth control rate is above 85%) | weeding effect in post-emergence stage, activity level (growth control rate), Setaria viridis [5]: 5 (Level 5: growth control rate is above 85%)
